Experimental data published in ChEMBL document CHEMBL1201862, “PubChem BioAssay data set” (2004).
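Cultured in 96-well plates, cells were exposed to test compound for 48 hours across five concentrations. GI50 = concentration required for 50% inhibition of growth.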 Activity calls are given as the source filed them. No stated cut-off is given here; in the data, active = GI50 up to about 1.1 µM and inactive = higher.

Tests used:
Test in all cases: NCI-60 cell line screen, 48 h
NCI-H460 = tested on: NCI-H460
SK-MEL-28 = tested on: SK-MEL-28
SNB-19 = tested on: SNB-19
EKVX = tested on: EKVX
TK-10 = tested on: TK-10
SK-MEL-2 = tested on: SK-MEL-2
SW-620 = tested on: SW-620
LOX IMVI = tested on: LOX IMVI
M14 = tested on: M14
SNB-75 = tested on: SNB-75
COLO 205 = tested on: COLO 205
NCI-H522 = tested on: NCI-H522
UACC-257 = tested on: UACC-257
HCT-116 = tested on: HCT-116
OVCAR-4 = tested on: OVCAR-4
HL-60 = tested on: HL-60
SR = tested on: SR

Measured: GI50

C1CSCCSCCCS[C@@H]2CCCCC2SC1 (stereo partly specified)
inactive: NCI-H460 44.1 µM | SK-MEL-28 > 100 µM | SNB-19 > 100 µM | EKVX > 100 µM | TK-10 > 100 µM | SK-MEL-2 > 100 µM | SW-620 20.1 µM | LOX IMVI 24.2 µM | M14 > 100 µM | SNB-75 > 100 µM | COLO 205 52.5 µM | NCI-H522 25.9 µM | UACC-257 > 100 µM | HCT-116 > 100 µM | OVCAR-4 > 100 µM | HL-60 44.3 µM

O=C1c2ccncc2C(=O)c2c(O)ccc(O)c21
inactive: NCI-H460 11.4 µM | SK-MEL-28 11.9 µM | SNB-19 12.4 µM | EKVX 18 µM | TK-10 27.5 µM | SK-MEL-2 8.05 µM | SW-620 2.89 µM | LOX IMVI 4.25 µM | M14 4.65 µM | SNB-75 23.6 µM | COLO 205 3.72 µM | SR 11 µM | HCT-116 2.91 µM | OVCAR-4 11.1 µM | HL-60 2.22 µM

COc1ccc(C2=C(Cl)c3cc(OC)c(OC)cc3C2Cl)cc1OC (stereo unspecified)
inactive: NCI-H460 16.5 µM | SK-MEL-28 17 µM | SNB-19 15.9 µM | EKVX 22.2 µM | TK-10 19.4 µM | SW-620 15.2 µM | LOX IMVI 14.9 µM | M14 17.7 µM | SNB-75 13.6 µM | COLO 205 18.3 µM | UACC-257 17.8 µM | HCT-116 15.2 µM | OVCAR-4 18.2 µM | HL-60 13.7 µM

NC(=O)CN(CC(N)=O)C(N)=O
inactive: NCI-H460 > 100 µM | SK-MEL-28 > 100 µM | SNB-19 > 100 µM | EKVX > 100 µM | TK-10 > 100 µM | SK-MEL-2 > 100 µM | SW-620 > 100 µM | LOX IMVI > 100 µM | M14 > 100 µM | SNB-75 23 µM | COLO 205 > 100 µM | NCI-H522 > 100 µM | UACC-257 > 100 µM | HCT-116 > 100 µM | OVCAR-4 > 100 µM | HL-60 > 100 µM

O=C1O[C@@H](c2ccccc2)C[C@@H]1CN1CCOCC1
inactive: NCI-H460 > 100 µM | SK-MEL-28 > 100 µM | EKVX > 100 µM | TK-10 > 100 µM | SK-MEL-2 > 100 µM | SW-620 > 100 µM | LOX IMVI > 100 µM | M14 > 100 µM | SNB-75 > 100 µM | COLO 205 > 100 µM | NCI-H522 > 100 µM | UACC-257 > 100 µM | OVCAR-4 > 100 µM | HL-60 > 100 µM

CCCN(CCCCC(NC(C)=O)C(=O)NCc1ccccc1)C(=O)NCCCl (stereo unspecified)
inactive: NCI-H460 > 100 µM | SK-MEL-28 > 100 µM | SNB-19 > 100 µM | EKVX > 100 µM | TK-10 > 100 µM | SW-620 > 100 µM | M14 > 100 µM | SNB-75 > 100 µM | COLO 205 > 100 µM | NCI-H522 > 100 µM | SR > 100 µM | UACC-257 > 100 µM | HCT-116 59.2 µM | OVCAR-4 > 100 µM | HL-60 > 100 µM

O=C(NCCCN1CCN(CCCNC(=O)c2cnc3ccccc3n2)CC1)c1cnc2ccccc2n1
inactive: NCI-H460 > 100 µM | SK-MEL-28 > 100 µM | SNB-19 > 100 µM | EKVX > 100 µM | SK-MEL-2 > 100 µM | SW-620 > 100 µM | LOX IMVI 76.6 µM | M14 > 100 µM | SNB-75 > 100 µM | COLO 205 > 100 µM | NCI-H522 90.8 µM | UACC-257 > 100 µM | HCT-116 44.8 µM | OVCAR-4 > 100 µM | HL-60 > 100 µM

CCCC(=O)CC(C)C(=O)C(=O)NC12CC3CC(CC(C3)C1)C2 (stereo unspecified)
inactive: NCI-H460 > 100 µM | SK-MEL-28 > 100 µM | SNB-19 > 100 µM | EKVX > 100 µM | TK-10 > 100 µM | SK-MEL-2 > 100 µM | SW-620 > 100 µM | LOX IMVI > 100 µM | M14 > 100 µM | SNB-75 97.5 µM | COLO 205 > 100 µM | NCI-H522 > 100 µM | UACC-257 > 100 µM | OVCAR-4 > 100 µM | HL-60 > 100 µM

COc1cc(Br)c(C2OCCCO2)cc1OCc1ccccc1
inactive: NCI-H460 55.7 µM | SK-MEL-28 60.3 µM | SNB-19 > 100 µM | EKVX > 100 µM | TK-10 > 100 µM | SK-MEL-2 > 100 µM | SW-620 > 100 µM | LOX IMVI 78.3 µM | M14 67.9 µM | SNB-75 > 100 µM | COLO 205 > 100 µM | NCI-H522 66.1 µM | HCT-116 39.7 µM | OVCAR-4 69.5 µM | HL-60 38.5 µM

CC(=O)O[C@H]1CCC2[C@@H]3CCC4Nc5c(cnn5-c5ccccc5)C[C@]4(C)C3CC[C@@]21C (stereo partly specified)
inactive: NCI-H460 15.8 µM | SNB-19 14.5 µM | EKVX 3.3 µM | TK-10 19.2 µM | SK-MEL-2 17.1 µM | SW-620 11.9 µM | LOX IMVI 12.8 µM | M14 14.4 µM | SNB-75 4.01 µM | COLO 205 14.5 µM | NCI-H522 14.7 µM | UACC-257 11.5 µM | HCT-116 14.3 µM | OVCAR-4 21.4 µM | HL-60 7.64 µM

CC(=O)N1c2ccccc2C2=CC3C4C(=O)N(c5ccccc5)C(=O)C4C21C1C(=O)N(c2ccccc2)C(=O)C31 (stereo unspecified)
inactive: NCI-H460 16.8 µM | SK-MEL-28 > 100 µM | SNB-19 16.4 µM | TK-10 > 100 µM | SK-MEL-2 17.3 µM | SW-620 31.2 µM | LOX IMVI 43.9 µM | SNB-75 31.1 µM | COLO 205 59.7 µM | SR 32.5 µM | UACC-257 13.8 µM | HCT-116 3.83 µM | HL-60 20.7 µM

CN1CC(=O)N2Cc3ccccc3-n3cccc3C2C1 (stereo unspecified)
inactive: NCI-H460 > 100 µM | SK-MEL-28 > 100 µM | SNB-19 > 100 µM | EKVX > 100 µM | TK-10 > 100 µM | SK-MEL-2 > 100 µM | SW-620 > 100 µM | LOX IMVI > 100 µM | M14 > 100 µM | SNB-75 > 100 µM | COLO 205 > 100 µM | UACC-257 > 100 µM | HCT-116 > 100 µM | OVCAR-4 > 100 µM

COc1ccc2c(c1)C(CCN)C(=O)N2 (stereo unspecified)
inactive: NCI-H460 > 100 µM | SK-MEL-28 > 100 µM | EKVX > 100 µM | TK-10 > 100 µM | SK-MEL-2 > 100 µM | SW-620 > 100 µM | LOX IMVI > 100 µM | M14 > 100 µM | SNB-75 > 100 µM | COLO 205 > 100 µM | UACC-257 > 100 µM | HCT-116 > 100 µM | OVCAR-4 > 100 µM | HL-60 > 100 µM
